# Where two headings read alike, the source gives them in different places.
# Columns and labels:
# [1] = Tissue distribution of radioactivity in mice; type: in vivo, mouse; details: for tissue uptake at 5 min / tissue uptake at 1 h / tissue uptake at 2 h: read-out: Tissue distribution, % Dose/g
# Excerpt: As noted in Example 3 for the rat, the mouse brain uptake of radioactivity was higher for radiolabeled N-methylspiroperidol (1.1% of the administered dose).
# [2] = Metabolic stability and uptake in rat brain (striatum, cerebellum); type: in vivo, rat (male BNL R strain); details: for remaining at 1 h / remaining at 4 h: iv, n = 2; for remaining at 1 h: 1 h after injection; for remaining at 4 h: 4 h after injection
# [3] = Baboon plasma analyses (total plasma radioactivity clearance and unchanged radioligand); details: for remaining at 40 s / remaining at 4 min / remaining at 10 min / remaining at 0.5 h / remaining at 1 h / remaining at 2 h / remaining at 3 h / remaining at 4 h: plasma; for remaining at 40 s: 0.67 min after injection; for remaining at 4 min: 4.0 min after injection; for remaining at 0.5 h: 30 min after injection; for remaining at 1 h: 60 min after injection; for remaining at 2 h: 120 min after injection; for remaining at 3 h: 180 min after injection; for remaining at 4 h: 240 min after injection
# Excerpt: (§1) A young adult (12 kg) female baboon (Papio anubis) was anesthesized initially with ketamine and subsequently maintained under halothane/nitrous oxide anesthesia for two PETT studies. […] Pett scans were made continually for 4 hrs from the time of radioisotope injection.
# Blood was sampled from the femoral artery at initial intervals of 5 secs. Aliquots of plasma were counted to determine the total plasma radioactivity of clearance curves.
# [4] = tested on: dopamine receptors; experiment: PETT baboon studies: striatum and cerebellum radioactivity after i.v. [^18 F]-N-methylspiroperidol, with (-)- or (+)-butaclamol pretreatment
# Excerpt: as §1
# [5] = baboon, iv, % [^18 F]-N-Methylspiroperidol in Plasma, baboon plasma
# [6] = baboon, iv, % of ^18 F in CH3 CN as [^18 F]-N-Methylspiroperidol, baboon plasma
smiles,measurement,setting,value
CN1CN(c2ccccc2)C2(CCN(CCCC(=O)c3ccc([18F])cc3)CC2)C1=O [[^18 F]-N-methylspiroperidol],tissue distribution of radioactivity compared with that reported for N-[^11 C] methylspiroperidol,[1]; mouse,very little difference
same,tissue uptake at 5 min,"[1]; mouse blood, 5 min, mean of three mice, range 1.0-1.5",1.2 %ID/g
same,tissue uptake at 1 h,"[1]; mouse blood, 60 min, mean of three mice, range 0.40-0.50",0.45 %ID/g
same,tissue uptake at 2 h,"[1]; mouse blood, 120 min, mean of four mice, range 0.15-0.27",0.19 %ID/g
same,mouse brain uptake of radioactivity,[1]; mouse brain,1.1 % of the administered dose
same,"Tissue distribution, % Dose/Organ","[1]; mouse brain, 5 min, mean of three mice, range 1.0-1.1",1.1 % Dose/Organ
same,tissue uptake at 5 min,"[1]; mouse brain, 5 min, mean of three mice, range 2.2-2.4",2.3 %ID/g
same,"Tissue distribution, % Dose/Organ","[1]; mouse brain, 60 min, mean of three mice, range 0.60-0.74",0.68 % Dose/Organ
same,tissue uptake at 1 h,"[1]; mouse brain, 60 min, mean of three mice, range 1.3-1.8",1.5 %ID/g
same,"Tissue distribution, % Dose/Organ","[1]; mouse brain, 120 min, mean of four mice, range 0.43-0.68",0.57 % Dose/Organ
same,tissue uptake at 2 h,"[1]; mouse brain, 120 min, mean of four mice, range 1.1-1.6",1.3 %ID/g
same,"Tissue distribution, % Dose/Organ","[1]; mouse heart, 5 min, mean of three mice, range 0.35-0.42",0.37 % Dose/Organ
same,tissue uptake at 5 min,"[1]; mouse heart, 5 min, mean of three mice, range 3.2-3.4",3.3 %ID/g
same,"Tissue distribution, % Dose/Organ","[1]; mouse heart, 60 min, mean of three mice, range 0.064-0.076",0.072 % Dose/Organ
same,tissue uptake at 1 h,"[1]; mouse heart, 60 min, mean of three mice, range 0.59-0.65",0.61 %ID/g
same,"Tissue distribution, % Dose/Organ","[1]; mouse heart, 120 min, mean of four mice, range 0.020-0.030",0.026 % Dose/Organ
same,tissue uptake at 2 h,"[1]; mouse heart, 120 min, mean of four mice, range 0.18-0.35",0.24 %ID/g
same,"Tissue distribution, % Dose/Organ","[1]; mouse kidneys, 5 min, mean of three mice, range 4.2-4.8",4.5 % Dose/Organ
same,tissue uptake at 5 min,"[1]; mouse kidneys, 5 min, mean of three mice, range 11-13",12 %ID/g
same,"Tissue distribution, % Dose/Organ","[1]; mouse kidneys, 60 min, mean of three mice, range 1.1-1.3",1.2 % Dose/Organ
same,tissue uptake at 1 h,"[1]; mouse kidneys, 60 min, mean of three mice, range 3.0-4.0",3.4 %ID/g
same,"Tissue distribution, % Dose/Organ","[1]; mouse kidneys, 120 min, mean of four mice, range 0.40-0.57",0.46 % Dose/Organ
same,tissue uptake at 2 h,"[1]; mouse kidneys, 120 min, mean of four mice, range 1.2-1.8",1.5 %ID/g
same,tissue uptake at 5 min,"[1]; mouse liver, 5 min, mean of three mice, range 5.2-5.7",5.4 %ID/g
same,"Tissue distribution, % Dose/Organ","[1]; mouse liver, 5 min, mean of three mice, range 8.2-8.3",8.2 % Dose/Organ
same,tissue uptake at 1 h,"[1]; mouse liver, 60 min, mean of three mice, range 2.4-3.4",2.9 %ID/g
same,"Tissue distribution, % Dose/Organ","[1]; mouse liver, 60 min, mean of three mice, range 3.8-4.1",4.0 % Dose/Organ
same,tissue uptake at 2 h,"[1]; mouse liver, 120 min, mean of four mice, range 1.2-1.9",1.4 %ID/g
same,"Tissue distribution, % Dose/Organ","[1]; mouse liver, 120 min, mean of four mice, range 1.5-1.8",1.6 % Dose/Organ
same,"Tissue distribution, % Dose/Organ","[1]; mouse lungs, 5 min, mean of three mice, range 2.0-2.1",2.0 % Dose/Organ
same,tissue uptake at 5 min,"[1]; mouse lungs, 5 min, mean of three mice, range 11-14",13 %ID/g
same,"Tissue distribution, % Dose/Organ","[1]; mouse lungs, 60 min, mean of three mice, range 0.24-0.29",0.27 % Dose/Organ
same,tissue uptake at 1 h,"[1]; mouse lungs, 60 min, mean of three mice, range 1.6-2.3",1.9 %ID/g
same,"Tissue distribution, % Dose/Organ","[1]; mouse lungs, 120 min, mean of four mice, range 0.09-0.16",0.12 % Dose/Organ
same,tissue uptake at 2 h,"[1]; mouse lungs, 120 min, mean of four mice, range 0.70-1.50",0.95 %ID/g
same,"Tissue distribution, % Dose/Organ","[1]; mouse ovaries, 60 min, mean of three mice, range 0.028-0.057",0.040 % Dose/Organ
same,"Tissue distribution, % Dose/Organ","[1]; mouse ovaries, 120 min, mean of four mice, range 0.009-0.022",0.014 % Dose/Organ
same,"Tissue distribution, % Dose/Organ","[1]; mouse small intestine, 5 min, mean of three mice, range 3.2-6.8",5.3 % Dose/Organ
same,tissue uptake at 5 min,"[1]; mouse small intestine, 5 min, mean of three mice, range 4.0-4.8",4.3 %ID/g
same,"Tissue distribution, % Dose/Organ","[1]; mouse small intestine, 60 min, mean of three mice, range 1.6-3.6",2.9 % Dose/Organ
same,tissue uptake at 1 h,"[1]; mouse small intestine, 60 min, mean of three mice, range 1.7-3.4",2.5 %ID/g
same,"Tissue distribution, % Dose/Organ","[1]; mouse small intestine, 120 min, mean of four mice, range 0.7-1.9",1.3 % Dose/Organ
same,tissue uptake at 2 h,"[1]; mouse small intestine, 120 min, mean of four mice, range 0.8-1.7",1.3 %ID/g
same,"Tissue distribution, % Dose/Organ","[1]; mouse spleen, 5 min, mean of three mice, range 0.82-1.05",0.95 % Dose/Organ
same,tissue uptake at 5 min,"[1]; mouse spleen, 5 min, mean of three mice, range 4.7-6.5",5.8 %ID/g
same,"Tissue distribution, % Dose/Organ","[1]; mouse spleen, 60 min, mean of three mice, range 0.25-0.28",0.26 % Dose/Organ
same,tissue uptake at 1 h,"[1]; mouse spleen, 60 min, mean of three mice, range 1.1-1.9",1.6 %ID/g
same,"Tissue distribution, % Dose/Organ","[1]; mouse spleen, 120 min, mean of four mice, range 0.043-0.073",0.062 % Dose/Organ
same,tissue uptake at 2 h,"[1]; mouse spleen, 120 min, mean of four mice, range 0.40-0.73",0.57 %ID/g
same,remaining at 1 h,"[2]; rat cerebellum, ind. values 90, 90",90%
same,remaining at 4 h,"[2]; rat cerebellum, ind. values 85, 85",85%
same,remaining at 1 h,"[2]; rat striatum, ind. values 95, 96",96%
same,remaining at 4 h,"[2]; rat striatum, ind. values 98, 97",98%
same,metabolism in the rat brain,[2]; rat brain,very little metabolism
same,time course of distribution compared with [^18 F]spiroperidol,[3]; Example 2,more rapid
same,appearance of peripheral radioactive metabolites compared with [^18 F]spiroperidol,[3]; baboon plasma,more rapid
same,time for blood radioactivity to drop below the brain concentration,"[3]; baboon, after injection",≤ 90 s
same,remaining at 40 s,[3]; [5],81%
same,remaining at 4 min,[3]; [5],66%
same,remaining at 10 min,"[3]; baboon, iv, % [^18 F]-N-Methylspiroperidol in Plasma, baboon plasma, 10 min after injection",43%
same,remaining at 0.5 h,[3]; [5],18%
same,remaining at 1 h,[3]; [5],18%
same,remaining at 2 h,[3]; [5],11%
same,remaining at 3 h,[3]; [5],11%
same,remaining at 4 h,[3]; [5],9.4%
same,remaining at 40 s,[3]; [6],88%
same,remaining at 4 min,[3]; [6],78%
same,remaining at 10 min,"[3]; baboon, iv, % of ^18 F in CH3 CN as [^18 F]-N-Methylspiroperidol, baboon plasma, 10 min after injection",60%
same,remaining at 0.5 h,[3]; [6],32%
same,remaining at 1 h,[3]; [6],36%
same,remaining at 2 h,[3]; [6],26%
same,remaining at 3 h,[3]; [6],29%
same,remaining at 4 h,[3]; [6],26%
same,remaining at 10 min,"[3]; baboon, plasma radioactivity due to unaltered radioligand, baboon plasma, 10 mins after injection",43%
same,blood clearance,"[3]; baboon, total plasma radioactivity",very rapid
same,specifically bound component of radioactivity in the striatum (striatum minus cerebellum),[4]; 4 hrs after injection,still increasing at 4 hrs after injection
same,"striatum and cerebellum radioactivity curves, access to specific binding sites",[4]; after 0.5 mg/kg (+)-butaclamol pretreatment,no longer had access to specific binding sites
same,radioactivity in the cerebellum,"[4]; after the first few minutes, control study",declined rapidly in the cerebellum
same,"absolute striatal uptake, excess over [^18 F]spiroperidol","[4]; control study, (-)-butaclamol 0.5 mg/kg pretreatment",more than two-fold
same,Influx into striatum and cerebellum,"[4]; first few minutes, control study",equal for the first few minutes
same,radioactivity in the striatum,"[4]; up to 4 hrs, control study",increasing for up to 4 hrs in the striatum

# Reference: patent USH1209H, “No-carrier-added (18F)-N-methylspiroperidol” (The United States of America as represented by the United …, priority 1985, dated 1993)
